Type in all cases: functional
For experiment [1], the system named is Neisseria gonorrhoeae. Kind of experiment: Antimicrobial activity against Neisseria gonorrhoeae isolate NG0202 expressing chromosomal cefixime-resistant penA gene at 0.031 ug/ml after 16 hrs.
For experiment [2], the system named is Neisseria gonorrhoeae. As to the kind of experiment: Antimicrobial activity against Neisseria gonorrhoeae isolate NGON07-002 expressing chromosomal cefixime-resistant penA gene by agar dilution method. On the technique in general: Agar dilution tests growth on a series of plates holding different concentrations.
Experiment [3] has as its system Neisseria gonorrhoeae. Kind of experiment: Antimicrobial activity against Neisseria gonorrhoeae isolate NG0110 expressing chromosomal cefixime-resistant penA gene by agar dilution method.
In experiment [4] the test system is Neisseria gonorrhoeae. As to the kind of experiment: Antimicrobial activity against Neisseria gonorrhoeae isolate NG0002 expressing chromosomal cefixime-resistant penA gene by agar dilution method.
For experiment [5], the system named is Neisseria gonorrhoeae. As to the kind of experiment: Antimicrobial activity against Neisseria gonorrhoeae isolate NG0205 expressing chromosomal cefixime-resistant penA gene by agar dilution method.
The test system of experiment [6] is Neisseria gonorrhoeae. As to the kind of experiment: Antimicrobial activity against Neisseria gonorrhoeae isolate NG0201 expressing chromosomal cefixime-resistant penA gene by agar dilution method.
For experiment [7], the system named is Neisseria gonorrhoeae. As to the kind of experiment: Antimicrobial activity against Neisseria gonorrhoeae isolate NG0509 expressing chromosomal cefixime-resistant penA gene by agar dilution method.
Experiment [8] concerns Neisseria gonorrhoeae. Kind of experiment: Antimicrobial activity against Neisseria gonorrhoeae isolate NG0109 expressing chromosomal cefixime-resistant penA gene by agar dilution method.
For experiment [9], the system named is Neisseria gonorrhoeae. As to the kind of experiment: Antimicrobial activity against Neisseria gonorrhoeae isolate NG9913 expressing chromosomal cefixime-resistant penA gene by agar dilution method.
Experiment [10] has as its system Neisseria gonorrhoeae. Kind of experiment: Antimicrobial activity against Neisseria gonorrhoeae isolate NG0508 expressing chromosomal cefixime-resistant penA gene by agar dilution method.
Experiment [11] concerns Neisseria gonorrhoeae. As to the kind of experiment: Antimicrobial activity against Neisseria gonorrhoeae isolate NG0204 expressing chromosomal cefixime-resistant penA gene by agar dilution method.
For experiment [12], the system named is Neisseria gonorrhoeae. As to the kind of experiment: Antimicrobial activity against Neisseria gonorrhoeae isolate NG0003 expressing chromosomal cefixime-resistant penA gene at […] after 16 hrs.
For experiment [13], the system named is Neisseria gonorrhoeae. Kind of experiment: Antimicrobial activity against Neisseria gonorrhoeae isolate NG0312 expressing chromosomal cefixime-resistant penA gene by agar dilution method.
The subject of experiment [14] is Neisseria gonorrhoeae. As to the kind of experiment: Antimicrobial activity against Neisseria gonorrhoeae isolate NG0311 expressing chromosomal cefixime-resistant penA gene by agar dilution method.
Experiment [15] relates to Neisseria gonorrhoeae. Kind of experiment: Antimicrobial activity against Neisseria gonorrhoeae isolate NG9806 expressing chromosomal cefixime-resistant penA gene by agar dilution method.
In experiment [16] the test system is Neisseria gonorrhoeae. Kind of experiment: Antimicrobial activity against Neisseria gonorrhoeae isolate NG0207 expressing chromosomal cefixime-resistant penA gene by agar dilution method.
The subject of experiment [17] is Neisseria gonorrhoeae. Kind of experiment: Antimicrobial activity against Neisseria gonorrhoeae isolate NG0511 expressing chromosomal cefixime-resistant penA gene by agar dilution method.
In experiment [18] the test system is Neisseria gonorrhoeae. Kind of experiment: Antimicrobial activity against Neisseria gonorrhoeae isolate NG0008 expressing chromosomal cefixime-resistant penA gene by agar dilution method.
Experiment [19] has as its system Neisseria gonorrhoeae. Kind of experiment: Antimicrobial activity against Neisseria gonorrhoeae isolate NG0401 expressing chromosomal cefixime-resistant penA gene by agar dilution method.
Experiment [20] concerns Neisseria gonorrhoeae. Kind of experiment: Antimicrobial activity against Neisseria gonorrhoeae isolate NGON03-115 expressing chromosomal cefixime-resistant penA gene by agar dilution method.
The subject of experiment [21] is Neisseria gonorrhoeae. As to the kind of experiment: Antimicrobial activity against Neisseria gonorrhoeae isolate NG9811 expressing chromosomal cefixime-resistant penA gene by agar dilution method.
Experiment [22] concerns Neisseria gonorrhoeae. As to the kind of experiment: Antimicrobial activity against Neisseria gonorrhoeae isolate NG0303 expressing chromosomal cefixime-resistant penA gene by agar dilution method.
The test system of experiment [23] is Neisseria gonorrhoeae. As to the kind of experiment: Antimicrobial activity against Neisseria gonorrhoeae isolate NG0514 expressing chromosomal cefixime-resistant penA gene by agar dilution method.
Experiment [24] deals with Neisseria gonorrhoeae. Kind of experiment: Antimicrobial activity against Neisseria gonorrhoeae isolate NG0503 expressing chromosomal cefixime-resistant penA gene by agar dilution method.
Experiment [25] has as its system Neisseria gonorrhoeae. As to the kind of experiment: Antimicrobial activity against Neisseria gonorrhoeae isolate NG0512 expressing chromosomal cefixime-resistant penA gene by agar dilution method.
Experiment [26] has as its system Neisseria gonorrhoeae. Kind of experiment: Antimicrobial activity against Neisseria gonorrhoeae isolate NG0111 expressing chromosomal cefixime-resistant penA gene by agar dilution method.
The subject of experiment [27] is Neisseria gonorrhoeae. As to the kind of experiment: Antimicrobial activity against Neisseria gonorrhoeae isolate NG9914 expressing chromosomal cefixime-resistant penA gene by agar dilution method.
Experiment [28] deals with Neisseria gonorrhoeae. As to the kind of experiment: Antimicrobial activity against Neisseria gonorrhoeae isolate NGON03-092 expressing chromosomal cefixime-resistant penA gene by agar dilution method.
Experiment [29] has as its system Neisseria gonorrhoeae. Kind of experiment: Antimicrobial activity against Neisseria gonorrhoeae isolate NG0206 expressing chromosomal cefixime-resistant penA gene by agar dilution method.
Experiment [30] deals with Neisseria gonorrhoeae. As to the kind of experiment: Antimicrobial activity against Neisseria gonorrhoeae isolate NG0003 expressing chromosomal cefixime-resistant penA gene by agar dilution method.
In experiment [31] the test system is Neisseria gonorrhoeae. As to the kind of experiment: Antimicrobial activity against Neisseria gonorrhoeae isolate NG9812 expressing chromosomal cefixime-resistant penA gene by agar dilution method.
In experiment [32] the test system is Neisseria gonorrhoeae. Kind of experiment: Antimicrobial activity against Neisseria gonorrhoeae isolate NG0404 expressing chromosomal cefixime-resistant penA gene by agar dilution method.
Experiment [33] has as its system Neisseria gonorrhoeae. Kind of experiment: Antimicrobial activity against Neisseria gonorrhoeae isolate NG0410 expressing chromosomal cefixime-resistant penA gene by agar dilution method.
In experiment [34] the test system is Neisseria gonorrhoeae. As to the kind of experiment: Antimicrobial activity against Neisseria gonorrhoeae isolate NG0202 expressing chromosomal cefixime-resistant penA gene by agar dilution method.
Experiment [35] deals with Neisseria gonorrhoeae. As to the kind of experiment: Antimicrobial activity against Neisseria gonorrhoeae isolate NG0513 expressing chromosomal cefixime-resistant penA gene by agar dilution method.
The test system of experiment [36] is Neisseria gonorrhoeae. Kind of experiment: Antimicrobial activity against Neisseria gonorrhoeae isolate NG0304 expressing chromosomal cefixime-resistant penA gene by agar dilution method.
The test system of experiment [37] is Neisseria gonorrhoeae. As to the kind of experiment: Antimicrobial activity against Neisseria gonorrhoeae isolate NG9912 expressing chromosomal cefixime-resistant penA gene by agar dilution method.
Experiment [38] deals with Neisseria gonorrhoeae. As to the kind of experiment: Antimicrobial activity against Neisseria gonorrhoeae isolate NG9911 expressing chromosomal cefixime-resistant penA gene by agar dilution method.
Experiment [39] deals with Neisseria gonorrhoeae. As to the kind of experiment: Antimicrobial activity against Neisseria gonorrhoeae isolate NGON03-079 expressing chromosomal cefixime-resistant penA gene by agar dilution method.
For experiment [40], the system named is Neisseria gonorrhoeae. As to the kind of experiment: Antimicrobial activity against Neisseria gonorrhoeae isolate NG0402 expressing chromosomal cefixime-resistant penA gene by agar dilution method.
Experiment [41] deals with Neisseria gonorrhoeae. As to the kind of experiment: Antimicrobial activity against Neisseria gonorrhoeae isolate NG0202 expressing chromosomal cefixime-resistant penA gene at 2 ug/ml after 16 hrs.
In experiment [42] the test system is Neisseria gonorrhoeae. Kind of experiment: Antimicrobial activity against Neisseria gonorrhoeae isolate NG0003 expressing chromosomal cefixime-resistant penA gene at 2 ug/ml after 16 hrs.

In brackets after ≈: the same amount, converted by molar mass. A value given as a limit tells only on which side of the number the result lay.

Broadly, the MIC is the lowest concentration found to suppress growth. Regarding `C=CC1=C(C(=O)O)N2C(=O)[C@@H](NC(=O)/C(=N\OCC(=O)O)c3csc(N)n3)[C@H]2SC1` [CEFIXIME], the CFU was less than 10 mL⁻¹ in the experiment with Neisseria gonorrhoeae [1] and 1.01 ×10⁸ /ml in the experiment on Neisseria gonorrhoeae [12]. In addition, the MIC in the experiment with Neisseria gonorrhoeae [2], in the experiment on Neisseria gonorrhoeae [3], with Neisseria gonorrhoeae [4], in the experiment on Neisseria gonorrhoeae [5], against Neisseria gonorrhoeae [6] and in the experiment on Neisseria gonorrhoeae [7] was 0.25 µg/mL (≈ 0.551 µM) in each case. Moreover, the MIC in the experiment with Neisseria gonorrhoeae [8] turned out to be 0.25 µg/mL (≈ 0.551 µM); in the experiment with Neisseria gonorrhoeae [9], 0.25 µg/mL (≈ 0.551 µM); with Neisseria gonorrhoeae [10], 0.25 µg/mL (≈ 0.551 µM); in the experiment on Neisseria gonorrhoeae [11] it was 0.25 µg/mL (≈ 0.551 µM); in the experiment with Neisseria gonorrhoeae [13] it was 0.5 µg/mL (≈ 1.1 µM); with Neisseria gonorrhoeae [14], 0.5 µg/mL (≈ 1.1 µM). The MIC amounted to 0.25 µg/mL (≈ 0.551 µM) against Neisseria gonorrhoeae [15]; 0.25 µg/mL (≈ 0.551 µM) with Neisseria gonorrhoeae [16]; 0.25 µg/mL (≈ 0.551 µM) in the experiment on Neisseria gonorrhoeae [17]; 0.25 µg/mL (≈ 0.551 µM) against Neisseria gonorrhoeae [18]; 0.5 µg/mL (≈ 1.1 µM) against Neisseria gonorrhoeae [19]; 0.5 µg/mL (≈ 1.1 µM) against Neisseria gonorrhoeae [20]. Also, the MIC with Neisseria gonorrhoeae [21], against Neisseria gonorrhoeae [22], against Neisseria gonorrhoeae [23], with Neisseria gonorrhoeae [24], in the experiment on Neisseria gonorrhoeae [25] and in the experiment on Neisseria gonorrhoeae [26] was 0.25 µg/mL (≈ 0.551 µM) each time. Besides, the MIC against Neisseria gonorrhoeae [27] stood at 0.25 µg/mL (≈ 0.551 µM); in the experiment on Neisseria gonorrhoeae [28], 0.25 µg/mL (≈ 0.551 µM); with Neisseria gonorrhoeae [29], 0.25 µg/mL (≈ 0.551 µM); in the experiment on Neisseria gonorrhoeae [30] it was 0.25 µg/mL (≈ 0.551 µM); with Neisseria gonorrhoeae [31], 0.25 µg/mL (≈ 0.551 µM); in the experiment on Neisseria gonorrhoeae [32], 0.5 µg/mL (≈ 1.1 µM). For the same molecule, the MIC in the experiment with Neisseria gonorrhoeae [33] amounted to 0.5 µg/mL (≈ 1.1 µM); with Neisseria gonorrhoeae [34], 0.004 µg/mL (≈ 0.00882 µM); with Neisseria gonorrhoeae [35], 0.5 µg/mL (≈ 1.1 µM); against Neisseria gonorrhoeae [36], 1 µg/mL (≈ 2.21 µM); against Neisseria gonorrhoeae [37], 0.25 µg/mL (≈ 0.551 µM); in the experiment with Neisseria gonorrhoeae [38] it was 0.25 µg/mL (≈ 0.551 µM). The results for the MIC in the experiment on Neisseria gonorrhoeae [39] and in the experiment on Neisseria gonorrhoeae [40] were 0.5 µg/mL (≈ 1.1 µM) and 0.031 µg/mL (≈ 0.0684 µM), respectively.
Consider `O=C(O)c1cn(C2CC2)c2cc(N3CCNCC3)c(F)cc2c1=O` [CIPROFLOXACIN], for which the figures for the MIC in the experiment on Neisseria gonorrhoeae [30] and in the experiment on Neisseria gonorrhoeae [34] were 0.031 µg/mL (≈ 0.0936 µM) and 8 µg/mL (≈ 24.1 µM), respectively. Moreover, the CFU in the experiment with Neisseria gonorrhoeae [41] was 0.71 ×10⁸ /ml; in the experiment with Neisseria gonorrhoeae [42], less than 10 mL⁻¹.

The values are drawn from ChEMBL document CHEMBL1240381, “Spread of a chromosomal cefixime-resistant penA gene among different Neisseria gonorrhoeae lineages” (2010).
